From US20110206607A1, “IMIDAZOL (1,2-A)PYRIDINES AND RELATED COMPOUNDS WITH ACTIVITY AT CANNABINOID CB2 RECEPTORS” (priority 2007, published 2011) come the findings set out here.

Structures are written as SMILES.

T1 sequence (P34972 whole entry): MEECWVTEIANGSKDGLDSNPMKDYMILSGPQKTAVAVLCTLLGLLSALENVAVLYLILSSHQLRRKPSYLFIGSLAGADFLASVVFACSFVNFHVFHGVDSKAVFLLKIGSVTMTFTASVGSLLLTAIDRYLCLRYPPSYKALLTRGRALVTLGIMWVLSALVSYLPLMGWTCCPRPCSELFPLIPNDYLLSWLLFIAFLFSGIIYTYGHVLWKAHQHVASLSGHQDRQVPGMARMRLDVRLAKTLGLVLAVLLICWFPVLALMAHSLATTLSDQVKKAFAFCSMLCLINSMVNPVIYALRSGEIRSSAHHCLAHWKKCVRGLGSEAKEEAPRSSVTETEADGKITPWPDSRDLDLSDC

The experiment has as its target T1, human CB2 (Homo sapiens, UniProt P34972).
T1 construct: expressed in transfected cells; host or cells: HEK-293T (transient transfection, membrane preparation)
Briefly: CB2 receptor binding assay, block of [3H]-CP 55,940 binding. The settings on record: membranes of HEK-293T cells transfected with human CB2 cDNA; 1.5 nM [3H]-CP 55,940. How it is done: Membrane preparation—HEK-293T cells were cultured according to ATCC (Manassas, Va.) guidelines and transfected with human CB2 cDNA (SEQ ID NO:1) (Genbank X74328), operably linked to the SV40 promoter, using Polyfect (Qiagen, Valencia, Calif.) or Fugene (Roche, Nutley, N.J.) according to manufacturer's instructions. 48 h after transfection cells were harvested in ice cold membrane buffer (20 mM HEPES, 6 mM MgCl2, 1 mM EDTA, pH 7.2) using a cell scraper. Cells were transferred to a nitrogen cavitation chamber and a pressure of […] was applied for 30 min. The pressure was released and the cell debris was collected and centrifuged at 1000 g at 4° C. for 10 min. The supernatant was collected and the spin was repeated until the supernatant was free of precipitate. Membranes were then pelleted by centrifugation at 12.000 g at 4° C. for 20 min. Membranes were resuspended in an appropriate amount of membrane buffer. The membrane concentration was determined using a BioRad (Hercules, Calif.) protein assay dye reagent according to manufacturer's instructions. Membranes were diluted to 1 mg/ml and aliquots snap-frozen in liquid nitrogen and store at −80° C.
Binding assay—0.5-10 ng of membranes were incubated in binding buffer (50 mM Tris, 0.5 mM EDTA, 0.1% BSA, pH 7.4) in the presence of 1.5 nM radioligand ([^3H]-CP 55,940 Perkin Elmer) and varying concentrations of ligands (total volume 100 μL in a 96 well plate). Membranes were filtered onto a 96 well GF/B filterplate (Packard Bioscience, Shelton, Conn.) and washed with […] wash buffer (25 mM HEPES, 1 mM CaCl2, 5 mM MgCl2, 0.25M NaCl) using a Filtermate 196 Harvester (Packard Instruments, Downers Grove, Ill.). The filter plates were dried under a heat lamp before addition of 50 μL of scintillation fluid to each well (Microscint 20, Packard, Shelton, Conn.). Plates were counted on a Topcount NXT (Packard, Shelton, Conn.).
Data Analysis—Graphs were plotted and KD values were determined by nonlinear regression analysis using Prism software (GraphPad version 4.0, San Diego, Calif., USA).
In the case of `COc1cccc2nc(-c3c(F)ccc(OCF)c3F)c(Nc3ccc4c(c3)OCCO4)n12` [CR-1], the pKi is 9.5.
`COc1cccc2nc(-c3c(F)ccc(O)c3Cl)c(Nc3ccc4c(c3)OCCO4)n12` [CR-2] had a pKi of 8.6.
`COc1cccc2nc(-c3c(F)cc(OCF)cc3F)c(Nc3ccc4c(c3)OCCO4)n12` [CR-3] showed a pKi of 8.6.
To `COc1cccc2nc(-c3c(F)ccc(O)c3F)c(Nc3ccc4c(c3)OCCO4)n12` [CR-4] belongs 8.5.
To `COc1cccc2nc(-c3c(C)cc(OCCO)cc3C)c(Nc3ccc4c(c3)OCCO4)n12` [CR-5] belongs 8.3.
To `Oc1cc(F)c(-c2nc3cccc(OCCF)n3c2Nc2ccc3c(c2)OCCO3)c(F)c1` [CR-6] belongs 7.6.
Compound `FCCOc1cccc2nc(-c3c(F)cncc3F)c(Nc3ccc4c(c3)OCCO4)n12` [CR-7] came in with a pKi of 7.4.
To `FCCOc1cncc(F)c1-c1nc2cccc(OCCF)n2c1Nc1ccc2c(c1)OCCO2` [CR-8] belongs 6.6; to `COc1cccc2nc(-c3c(F)ccc(OCCF)c3Cl)c(Nc3ccc4c(c3)OCCO4)n12` [CR-9], 9.3.
To `COc1cccc2nc(-c3c(Cl)ccc(OCF)c3F)c(Nc3ccc4c(c3)OCCO4)n12` [CR-10] belongs 9.2; to `COc1cccc2nc(-c3c(F)ccc(OCF)c3Cl)c(Nc3ccc4c(c3)OCCO4)n12` [CR-11], 9.1; to `COc1cccc2nc(-c3c(F)ccc(OCCF)c3F)c(Nc3ccc4c(c3)OCCO4)n12` [CR-12], 8.8.
For the compound `COc1ccc2nc(-c3c(F)cccc3Cl)c(Nc3ccc4c(c3)OCCO4)n2c1` [CR-13], the negative logarithm of the Ki (pKi) is on record as 8.7.
`COc1cccc2nc(-c3c(F)cccc3Cl)c(Nc3ccc4c(c3)OCCO4)n12` [CR-14]: the pKi is given as 8.7.
Take `COc1cccc2nc(-c3c(F)cc(O)cc3F)c(Nc3ccc4c(c3)OCCO4)n12` [CR-15]: the pKi is 8.6.
Under `COc1ccc2nc(-c3c(F)ccc(OCF)c3Cl)c(Nc3ccc4c(c3)OCCO4)n2c1` [CR-16] stands 8.6; under `COc1cccc2nc(-c3c(F)cc(OCCF)cc3F)c(Nc3ccc4c(c3)OCCO4)n12` [CR-17], 8.5; under `COc1cccc2nc(-c3c(Cl)cccc3Cl)c(Nc3ccc4c(c3)OCCO4)n12` [CR-18], 8.4.
To `COc1cccc2nc(-c3c(F)cccc3F)c(Nc3ccc4c(c3)OCCO4)n12` [CR-19] belongs 8.4; to `COc1cccc2nc(-c3c(Cl)cncc3Cl)c(Nc3ccc4c(c3)OCCO4)n12` [CR-20], 8.4.
Under `COc1cccc2nc(-c3c(C)cc(OCCF)cc3C)c(Nc3ccc4c(c3)OCCO4)n12` [CR-21] stands 8.3; under `COc1cccc2nc(-c3c(Cl)ncnc3Cl)c(Nc3ccc4c(c3)OCCO4)n12` [CR-22], 8.2; under `COc1cccc2nc(-c3c(Cl)cc(O)cc3Cl)c(Nc3ccc4c(c3)OCCO4)n12` [CR-23], 8.2.
Consider `CCOc1cccc2nc(-c3c(F)cccc3Cl)c(Nc3ccc4c(c3)OCCO4)n12` [CR-24], for which the pKi was 8.1.
Under `Cc1cccc2nc(-c3c(F)cccc3Cl)c(Nc3ccc4c(c3)OCCO4)n12` [CR-25] stands 8.0; under `Cc1cccc2nc(-c3c(F)cc(OCCF)cc3F)c(Nc3ccc4c(c3)OCCO4)n12` [CR-26], 7.9.
Under `Cc1cc(O)cc(C)c1-c1nc2cccc(OCCF)n2c1Nc1ccc2c(c1)OCCO2` [CR-27] stands 7.9.
The compound `Cc1cccc2nc(-c3c(F)cc(O)cc3F)c(Nc3ccc4c(c3)OCCO4)n12` [CR-28] came in with a pKi of 7.9.
Under `CC(C)Oc1cccc2nc(-c3c(F)cccc3Cl)c(Nc3ccc4c(c3)OCCO4)n12` [CR-29] stands 7.9.
To `C=COc1ccc2nc(-c3c(F)cccc3Cl)c(Nc3ccc4c(c3)OCCO4)n2c1` [CR-30] belongs 7.8; to `COc1cnc2nc(-c3c(F)cccc3Cl)c(Nc3ccc4c(c3)OCCO4)n2c1` [CR-31], 7.8; to `Cc1cccc2nc(-c3c(Cl)cccc3Cl)c(Nc3ccc4c(c3)OCCO4)n12` [CR-32], 7.8.
For the compound `Cc1cc(O)cc(C)c1-c1nc2ccc(F)cn2c1Nc1ccc2c(c1)OCCO2` [CR-33], the pKi is on record as 7.8.
Under `COc1cccc2nc(-c3c(F)cncc3F)c(Nc3ccc4c(c3)OCCO4)n12` [CR-34] stands 7.8; under `Oc1cc(Cl)c(-c2nc3cccc(OCCF)n3c2Nc2ccc3c(c2)OCCO3)c(Cl)c1` [CR-35], 7.8.
Under `Cc1cc(OCCF)cc(C)c1-c1nc2cccc(F)n2c1Nc1ccc2c(c1)OCCO2` [CR-36] stands 7.7.
Under `FCCOc1cccc2nc(-c3c(F)cccc3Cl)c(Nc3ccc4c(c3)OCCO4)n12` [CR-37] stands 7.7.
Regarding `Fc1cccc(Cl)c1-c1nc2ccccn2c1Nc1ccc2c(c1)OCCO2` [CR-38], the pKi worked out at 7.7.
To `Cc1ccc2nc(-c3c(Cl)cccc3Cl)c(Nc3ccc4c(c3)OCCO4)n2c1` [CR-39] belongs 7.6; to `Fc1ccc2nc(-c3c(F)cccc3Cl)c(Nc3ccc4c(c3)OCCO4)n2c1` [CR-40], 7.5; to `FCCOc1ccc2nc(-c3c(F)cccc3Cl)c(Nc3ccc4c(c3)OCCO4)n2c1` [CR-41], 7.5.
`Cc1ccc2nc(-c3c(F)cccc3Cl)c(Nc3ccc4c(c3)OCCO4)n2c1` [CR-42]: the pKi came out at 7.5.
To `CNc1cccc2nc(-c3c(F)cccc3Cl)c(Nc3ccc4c(c3)OCCO4)n12` [CR-43] belongs 7.5.
Under `COc1ccc2nc(-c3c(F)cccc3Cl)c(Nc3ccc4c(c3)OCCO4)n2c1Cl` [CR-44] stands 7.4.
To `CCc1cccc2nc(-c3c(F)cccc3Cl)c(Nc3ccc4c(c3)OCCO4)n12` [CR-45] belongs 7.4; to `Fc1cccc(Cl)c1-c1nc2ncccn2c1Nc1ccc2c(c1)OCCO2` [CR-46], 7.4; to `Cc1ccc2nc(-c3c(Cl)cccc3[N+](=O)[O-])c(Nc3ccc4c(c3)OCCO4)n2c1` [CR-47], 7.4.
Compound `Cc1ccc2nc(-c3c(F)cccc3F)c(Nc3ccc4c(c3)OCCO4)n2c1` [CR-48] registered a negative-log Ki (pKi) of 7.4.
Under `Cc1ccc2nc(-c3c(C)cccc3C)c(Nc3ccc4c(c3)OCCO4)n2c1` [CR-49] stands 7.3; under `Cc1cccn2c(Nc3ccc4c(c3)OCCO4)c(-c3c(F)cccc3Cl)nc12` [CR-50], 7.3; under `Cc1cccc(C)c1-c1nc2ccccn2c1Nc1ccc2c(c1)OCCO2` [CR-51], 7.3.
To `Cc1cccc2nc(-c3c(F)cncc3F)c(Nc3ccc4c(c3)OCCO4)n12` [CR-52] belongs 7.3.
Under `Cc1cccc2nc(-c3c(F)cc(C#N)cc3F)c(Nc3ccc4c(c3)OCCO4)n12` [CR-53] stands 7.3.
As for `Cc1ccn2c(Nc3ccc4c(c3)OCCO4)c(-c3ccc(F)nc3)nc2c1` [CR-54], the pKi was 5.2.
Under `Cc1ccn2c(Nc3ccc4c(c3)OCCO4)c(-c3c(F)cccc3Cl)nc2c1` [CR-55] stands 7.3; under `Fc1cccc(F)c1-c1nc2ccccn2c1Nc1ccc2c(c1)OCCO2` [CR-56], 7.3.
Compound `Cc1cccc2nc(-c3ncccc3F)c(Nc3ccc4c(c3)OCCO4)n12` [CR-57] had a pKi of 7.2.
`Cc1cncc2nc(-c3c(F)cccc3Cl)c(Nc3ccc4c(c3)OCCO4)n12` [CR-58] displayed a pKi of 7.2.
`Cc1ccc2nc(-c3cccc(F)n3)c(Nc3ccc4c(c3)OCCO4)n2c1` [CR-59]: the pKi is 7.1.
`COc1cc(-c2nc3cc(C)ccn3c2Nc2ccc3c(c2)OCCO3)ccc1O` [CR-60]: the negative-log Ki (pKi) amounted to 7.1.
To `COc1ccnc2nc(-c3c(F)cc(OCCF)cc3F)c(Nc3ccc4c(c3)OCCO4)n12` [CR-61] belongs 7.0; to `CCC(C)Oc1cccc2nc(-c3c(F)cccc3Cl)c(Nc3ccc4c(c3)OCCO4)n12` (stereo not shown) [CR-62], 7.0.
`Fc1cccc(-c2nc3ccccn3c2Nc2ccc3c(c2)OCCO3)n1` [CR-63] registered a pKi of 7.0.
`Clc1cncc(Cl)c1-c1nc2ccccn2c1Nc1ccc2c(c1)OCCO2` [CR-64] had a pKi of 7.0.
Under `COc1cc(O)ccc1-c1nc2cccc(C)n2c1Nc1ccc2c(c1)OCCO2` [CR-65] stands 6.9; under `COc1ccc2nc(-c3c(Cl)cncc3Cl)c(Nc3ccc4c(c3)OCCO4)n2c1` [CR-66], 6.9.
Under `COc1ccc2nc(-c3c(F)cccc3Cl)c(Nc3ccc4c(c3)OCCO4)n2c1OC` [CR-67] stands 6.9.

Usually pKi stands for the Ki on a negative log10 scale, so that one unit is a factor of ten. A high value points to a small Ki.
